This note sets out measurements from patent publication US20230348442A1, “GALECTIN-3 INHIBITING 2-HYDROXYCYCLOALKANE-1-CARBAMOYL DERIVATIVES” (Idorsia Pharmaceuticals Ltd, priority 2020, published 2023).

In this assay the target is human Gal-3 (hGal-3) (Homo sapiens (Human), UniProt P17931). Put plainly: competitive binding assay: binding of biotinylated hGal-3 to microplate-adsorbed asialofetuin (ASF), spectrophotometric. Particulars: Activity on hGal-3; mean values of several measurements. The method, boiled down:
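Biotin-hGal-3/hGal-1 300-1000 ng/mL + cpd (DMSO dilutions) on ASF-coated plate, 3 h 4° C; wash; SA-HRP 80 ng/mL 1 h 4° C; wash; ABTS. IC50 = mean of several runs. hGal-1 preferably Cys→Ser (all six) mutant.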

human Gal-3 (hGal-3), sequence (P17931 whole entry): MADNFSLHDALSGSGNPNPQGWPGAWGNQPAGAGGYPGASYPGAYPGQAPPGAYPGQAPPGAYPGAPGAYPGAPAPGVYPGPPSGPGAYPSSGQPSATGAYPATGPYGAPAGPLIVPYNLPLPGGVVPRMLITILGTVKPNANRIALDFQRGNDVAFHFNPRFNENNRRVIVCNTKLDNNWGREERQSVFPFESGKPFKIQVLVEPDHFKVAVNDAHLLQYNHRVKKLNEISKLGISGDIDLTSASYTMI

What is called IC50 is the concentration at which inhibition is half-maximal. Compound `CO[C@@H]1[C@@H](n2cc(-c3cc(F)c(Cl)c(Cl)c3)nn2)[C@@H](O)[C@@H](CO)O[C@H]1C(=O)N(c1cc(Br)cc(C#N)c1)[C@H]1CC[C@@H]1O` [Example 2.17.5, (2R,3R,4S,5R,6R)-N-(3-bromo-5-cyanophenyl)-4-(4-(3,4-dichloro-5-fluorophenyl)-1H-1,2,3-triazol-1-yl)-5-hydroxy-N-((1S,2S)-2-hydroxycyclobutyl)-6-(hydroxymethyl)-3-methoxytetrahydro-2H-pyran-2-carboxamide] showed a half-inhibitory concentration (IC50) of 56 nM.
